# Where “and” joins values, the source holds several entries; their conditions need not be identical. Identical values can stand only once. Records with an inconclusive call do not appear. Calls of active or inactive are those of the source.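 Rule for the calls: active = fitted half-maximal concentration of signal decrease at or below twice the sample's top tested concentration; inconclusive = flat curve between -70 and -30 percent, or poor fit; inactive = flat within 30 percent, signal rise, or potency above limit.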
# Target: T. gondii ME49Luc in IFN-y HeLa, luciferase, 72 h
# Assay: T. gondii growth inhibition with IFN-gamma, dose response, cell-based, ME49Luc, HeLa, luciferase, 72 h (AID 1259418)
row,SMILES,AC50
1,COc1ccc(-c2nc(N(Cc3ccco3)CC3CCCO3)c3ccccc3n2)cc1 (stereo not given),31.8 µM
2,O=C(NCCc1csc(-c2ccccc2)n1)C1CCN(C(=O)c2ccco2)CC1,> 39 µM (inactive)
3,COc1cccc(-c2nc3c(s2)CN(C(=O)Nc2ccc(Cl)cc2)CC3)c1,> 20 µM (inactive)
4,COc1ccc(S(=O)(=O)N(C)C[C@H]2Oc3c(NC(=O)c4nc5ccccc5s4)cccc3C(=O)N([C@@H](C)CO)C[C@@H]2C)cc1,1.77 µM and 0.196 µM
5,CS(=O)(=O)N1CC(=O)N2[C@H](CO)[C@@H](c3ccc(C#Cc4ccc(F)cc4)cc3)[C@H]2C1,39 µM
6,Cc1ccc(-c2nc(CN(c3ccccc3C)S(=O)(=O)c3cccs3)c(C)o2)cc1,9.63 µM
7,CO[C@@H]1[C@@H](OC(N)=O)[C@@H](O)[C@H](Oc2ccc3c(O)c(NC(=O)c4ccc(O)c(CC=C(C)C)c4)c(=O)oc3c2C)OC1(C)C,22.2 µM
8,COc1ccc(-c2nc(CN(c3ccccc3OC)S(=O)(=O)c3ccc(C)cc3)c(C)o2)cc1,5.3 µM
9,CC(C)CCN1Cc2c(C(=O)Nc3cccc(F)c3)ncn2-c2ccccc2S1(=O)=O,13 µM
10,Fc1ccc(Nc2nc(SCc3ccccc3Cl)nc3ccccc23)cc1F,11.3 µM
11,C[C@@H]1CN([C@@H](C)CO)C(=O)c2cccc(NC(=O)NC3CCCCC3)c2O[C@H]1CN(C)Cc1ccc(C(F)(F)F)cc1,16 µM
12,CCc1nc(OCC(=O)Nc2ccc(C)c(F)c2)c2ccccc2n1,26.6 µM
13,CCc1ccc(S(=O)(=O)N2CCC3(CCCN(Cc4c(C)noc4C)C3)C2)cc1 (stereo not given),22.9 µM
14,Cc1ccc(S(=O)(=O)Nc2ccc3c(c2)C(=O)N([C@H](C)CO)C[C@H](C)[C@H](CN(C)Cc2ccc(C(F)(F)F)cc2)O3)cc1,13.1 µM
15,CN1c2ccc(-c3ccccc3)cc2[C@@H]2[C@@H](CCN2C(=O)CC2CC2)[C@@H]1CO,18.5 µM and > 39 µM (inactive)
16,Cc1nc(-c2cc(S(=O)(=O)NCCCN3CCCC(C)C3)c(C)s2)sc1C (stereo not given),33.7 µM
17,COc1ccc(S(=O)(=O)N2CSC[C@@H]2C(=O)NCCc2csc(-c3ccccc3)n2)cc1,17.6 µM
18,Cc1ccc(CNc2nc(-c3ccc(Cl)cc3)nc3ccccc23)cc1,37 µM

row,SMILES,AC50
1,COc1ccc(S(=O)(=O)N2CCCCN3[C@H](CO)[C@@H](c4ccc(C#CCC(C)C)cc4)[C@H]3C2)cc1,4.13 µM and 4.65 µM
2,CCc1nc(OCC(=O)Nc2ccccc2C(=O)OC)c2ccccc2n1,> 39 µM (inactive)
3,CCc1ccc(S(=O)(=O)N2CCC[C@@H]2C(=O)NCCc2csc(-c3ccccc3)n2)cc1,21.8 µM
4,Cc1ccc(S(=O)(=O)N2CCC3(CC2)NCCN=C3NCc2ccc3c(c2)OCO3)cc1C,22.4 µM
5,CCc1ccccc1S(=O)(=O)N1CCC(C(=O)NCCc2csc(-c3ccccc3)n2)CC1,17.5 µM
6,C[C@H](CO)N1C[C@H](C)[C@H](CN(C)C(=O)Nc2ccc(C(F)(F)F)cc2)Oc2c(NC(=O)c3ccc(-c4nccs4)cc3)cccc2C1=O,18 µM
7,CCOc1ccccc1C(=O)N1CCC2(CC1)Nc1ccc(Cl)cc1-n1cccc12,24.3 µM
8,Cc1ccc(-n2ncc3c(NCc4cccc(Cl)c4)ncnc32)c(C)c1,22.3 µM
9,Cc1ccc(-c2nc(Cn3nnc(-c4nc(-c5cccs5)no4)c3C)c(C)o2)cc1,3.2 µM
10,CCOc1ccccc1-c1nc(CN(c2ccccc2OC)S(=O)(=O)c2ccccc2)c(C)o1,7.68 µM
11,COc1ccccc1N(Cc1nc(-c2cccc(C)c2)oc1C)S(=O)(=O)c1ccccc1,13.3 µM
12,Cc1cccc(-c2ccc([C@H]3[C@@H](CO)N4CCCCN(S(=O)(=O)c5ccccc5F)C[C@H]34)cc2)c1,16.9 µM and 13.6 µM
13,CCc1ccc(S(=O)(=O)N2CCC3(CC2)NCCN=C3NCc2ccc(Cl)cc2)cc1,7.78 µM
14,N#C[C@@H]1[C@H](c2ccc(-c3cccc(F)c3)cc2)[C@H](CO)N1C(=O)NC1CCCC1,15.1 µM and 4.56 µM
15,O=C(CC1N=C2c3ccccc3N=C(SCc3ccc(Cl)cc3)N2C1=O)NCc1cccs1 (stereo not given),29.4 µM
16,CCOC(=O)c1nn(Cc2ccccc2)c2c1CN(C(=O)CN1CC(c3ccccc3)CC1=O)CC2 (stereo not given),> 39 µM (inactive)
17,COc1ccc(NC(=O)CN2CCC3(CC2)N=C(c2cccc(C)c2)C(=O)N3)c(OC)c1,29.4 µM
